From patent publication US10239838B2, “Heteroaryl orexin receptor antagonists” (Merck Sharp & Dohme Corp., priority 2014, dated 2019)

Experiments:
human orexin-2 receptor = human orexin-2 receptor (Homo sapiens (Human), UniProt O43614); test: FLIPR Ca2+ Flux Assay, orexin-2 receptor; format: cell-based; conditions: CHO cells expressing the human orexin-2 receptor; agonist 70 pM Ala-6,12 orexin-A; read-out: hOX2R FLIPR IC50
Experimental: In a typical experiment the OX1 and OX2 receptor antagonistic activity of the compounds of the present invention was determined in accordance with the following experimental method. For intracellular calcium measurements, Chinese hamster ovary (CHO) cells expressing the rat orexin-1 receptor or the human orexin-2 receptor, are grown in Iscove's modified DMEM containing 2 mM L-glutamine, […], 1% hypoxanthine-thymidine supplement, 100 U/ml penicillin, 100 μg/ml streptomycin and 10% heat-inactivated fetal calf serum (FCS). The cells are seeded at 20,000 cells/well into Becton-Dickinson black 384-well clear bottom sterile plates coated with poly-D-lysine. All reagents were from GIBCO-Invitrogen Corp. The seeded plates are incubated overnight at 37° C. and 5% CO2. Ala-6,12 human orexin-A as the agonist is prepared as a 1 mM stock solution in 1% bovine serum albumin (BSA) and diluted in assay buffer (HBSS containing 20 mM HEPES, 0.1% BSA and 2.5 mM probenecid, pH7.4) for use in the assay at a final concentration of 70 pM. Test compounds are prepared as 10 mM stock solution in DMSO, then diluted in 384-well plates, first in DMSO, then assay buffer. On the day of the assay, cells are washed 3 times with 100 μl assay buffer and then incubated for 60 min (37° C., 5% CO2) in 60 μl assay buffer containing 1 μM Fluo-4 AM ester, 0.02% pluronic acid, and 1% BSA. The dye loading solution is then aspirated and cells are washed 3 times with 100 μl assay buffer. 30 μl of that same buffer is left in each well. Within the Fluorescent Imaging Plate Reader (FLIPR, Molecular Devices), test compounds are added to the plate in a volume of 25 μl, incubated for 5 min and finally 25 μl of agonist is added. Fluorescence is measured for each well at 1 second intervals for 5 minutes and the height of each fluorescence peak is compared to the height of the fluorescence peak induced by 70 pM Ala-6,12 orexin-A with buffer in place of antagonist. […] Alternatively, compound potency can be assessed by a radioligand binding assay (described in Bergman et. al. Bioorg. Med. Chem. Lett. 2008, 18, 1425-1430) in which the inhibition constant (Ki) is determined in membranes prepared from CHO cells expressing either the OX1 or OX2 receptor. The intrinsic orexin receptor antagonist activity of a compound which may be used in the present invention may be determined by these assays.

hOX1R = hOX1R (Homo sapiens, UniProt O43613); test: FLIPR Ca2+ Flux Assay, orexin-1 receptor; format: cell-based; conditions: CHO cells expressing orexin-1 receptor; agonist 70 pM Ala-6,12 orexin-A

human orexin-2 receptor, sequence (O43614 whole entry): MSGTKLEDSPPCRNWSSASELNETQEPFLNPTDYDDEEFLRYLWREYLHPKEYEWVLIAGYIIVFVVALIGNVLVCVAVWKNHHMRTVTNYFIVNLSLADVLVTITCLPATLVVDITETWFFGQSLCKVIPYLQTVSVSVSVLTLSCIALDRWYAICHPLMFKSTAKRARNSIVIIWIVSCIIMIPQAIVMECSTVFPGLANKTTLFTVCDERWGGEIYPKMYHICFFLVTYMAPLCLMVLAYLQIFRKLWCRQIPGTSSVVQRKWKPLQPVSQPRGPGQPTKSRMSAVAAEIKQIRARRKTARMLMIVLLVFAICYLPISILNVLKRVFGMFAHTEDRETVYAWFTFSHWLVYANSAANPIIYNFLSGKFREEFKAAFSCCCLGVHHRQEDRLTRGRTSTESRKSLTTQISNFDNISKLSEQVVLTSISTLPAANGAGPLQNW

Structure (SMILES)	IC50 (human orexin-2 receptor)	IC50 (hOX1R)
CCN(CCc1cccc(C(C)(C)O)n1)C(=O)c1ccccc1OC(F)(F)F [Example 8, N-ethyl-N-{2-[6-(1-hydroxy-1-methylethyl)pyridin-2-yl]ethyl}-2-(trifluoromethoxy)benzamide]	32 nM	> 10000 nM
CCOc1ccccc1C(=O)N(CC)CCc1cccc(C(C)(C)O)n1 [Example 11, 2-ethoxy-N-ethyl-N-{2-[6-(1-hydroxy-1-methylethyl)pyridin-2-yl]ethyl}benzamide]	76 nM	> 10000 nM
CCN(CCc1ccc(C(C)(C)O)cn1)C(=O)c1ccccc1OC(F)(F)F [Example 50, N-ethyl-N-{2-[5-(1-hydroxy-1-methylethyl)pyridin-2-yl]ethyl}-2-(trifluoromethoxy)benzamide]	239 nM	> 10000 nM
CCN(CCc1cccc(C(C)(C)O)n1)C(=O)c1ccccc1C1CC1 [Example 15, 2-cyclopropyl-N-ethyl-N-{2-[6-(1-hydroxy-1-methylethyl)pyridin-2-yl]ethyl}benzamide]	43 nM	> 10000 nM
CCCc1ccccc1C(=O)N(CC)CCc1ccc(C(C)(C)O)cn1 [Example 52, N-ethyl-N-{2-[5-(1-hydroxy-1-methylethyl)pyridin-2-yl]ethyl}-2-propylbenzamide]	–	> 10000 nM
CCN(CCc1cccc(C(C)(C)O)n1)C(=O)c1cccnc1-n1cccn1 [Example 24, N-ethyl-N-(2-(6-(2-hydroxypropan-2-yl)pyridin-2-yl)ethyl)-2-(1H-pyrazol-1-yl)nicotinamide]	36 nM	> 10000 nM
CCN(CCc1ccc(C(C)(C)O)cn1)C(=O)c1ccc(OC)nc1C1CC1 [Example 59, 2-cyclopropyl-N-ethyl-N-{2-[5-(1-hydroxy-1-methylethyl)pyridin-2-yl]ethyl}-6-methoxypyridine-3-carboxamide]	55 nM	> 10000 nM
CCN(CCc1ccc(C(C)(C)O)cn1)C(=O)c1ccccc1-n1cccn1 [Example 53, N-ethyl-N-{2-[5-(1-hydroxy-1-methylethyl)pyridin-2-yl]ethyl}-2-(1H-pyrazol-1-yl)benzamide]	183 nM	> 10000 nM
CCN(CCc1cnc(C(C)(C)O)cn1)C(=O)c1ccccc1-n1nccn1 [Example 46, N-Ethyl-N-(2-(5-(2-hydroxypropan-2-yl)pyrazin-2-yl)ethyl)-2-(2H-H-1,2,3-triazol-2-yl)benzamide]	170 nM	> 10000 nM
CCN(CCc1ccc(C(C)(C)O)cn1)C(=O)c1ccccc1-n1nccn1 [Example 35, N-Ethyl-N-{2-[5-(1-hydroxy-1-methylethyl)pyridin-2-yl]ethyl}-2-(2H-1,2,3-triazol-2-yl)benzamide]	50 nM	> 10000 nM
CCN(CCc1ccc(C(C)(C)O)cn1)C(=O)c1ccccc1CC(F)(F)F [Example 54, N-ethyl-N-{2-[5-(1-hydroxy-1-methylethyl)pyridin-2-yl]ethyl}-2-(2,2,2-trifluoroethyl)benzamide]	440 nM	> 10000 nM
CCN(CCc1cccc(C(C)(C)O)n1)C(=O)c1cccnc1OC(C)C [Example 5, N-Ethyl-N-{2-[6-(1-hydroxy-1-methylethyl)pyridin-2-yl]ethyl}-2-(1-methylethoxy)pyridine-3-carboxamide]	133 nM	> 10000 nM
CCN(CCc1cccc(C(C)(C)O)n1)C(=O)c1ccc(F)cc1-n1nccn1 [Example 13, N-ethyl-4-fluoro-N-{2-[6-(1-hydroxy-1-methylethyl)pyridin-2-yl]ethyl}-2-(2H-1,2,3-triazol-2-yl)benzamide]	8 nM	> 10000 nM
CCN(CCc1nccc(C(C)O)n1)C(=O)c1ccccc1-n1nccn1 (stereo not drawn) [Example 43, N-Ethyl-N-(2-(4-(1-hydroxyethyl)pyrimidin-2-yl)ethyl)-2-(2H-1,2,3-triazol-2-yl)benzamide]	165 nM	> 10000 nM
CCCc1ccccc1C(=O)N(CC)CCc1cccc(C(C)(C)O)n1 [Example 16, N-ethyl-N-(2-(6-(2-hydroxypropan-2-yl)pyridin-2-yl)ethyl)-2-propylbenzamide]	104 nM	> 10000 nM
CCN(CCc1cncc(C(C)(C)O)c1)C(=O)c1ccccc1-n1nccn1 [Example 38, N-Ethyl-N-{2-[5-(1-hydroxy-1-methylethyl)pyridin-3-yl]ethyl}-2-(2H-1,2,3-triazol-2-yl)benzamide]	152 nM	> 10000 nM

Structure (SMILES)	IC50 (human orexin-2 receptor)	IC50 (hOX1R)
CCN(CCc1ccc(C(C)(C)O)cn1)C(=O)c1ccc(F)cc1-n1nccn1 [Example 61, N-ethyl-4-fluoro-N-{2-[5-(1-hydroxy-1-methylethyl)pyridin-2-yl]ethyl}-2-(2H-1,2,3-triazol-2-yl)benzamide]	26 nM	> 10000 nM
CCN(CCc1ccc(C(C)(C)O)cn1)C(=O)c1ccccc1C1CC1 [Example 60, 2-cyclopropyl-N-ethyl-N-{2-[5-(1-hydroxy-1-methylethyl)pyridin-2-yl]ethyl}benzamide]	244 nM	> 10000 nM
CCN(CCc1cccc(C(C)(C)O)n1)C(=O)c1cccnc1-c1ccccc1 [Example 14, N-ethyl-N-{2-[6-(1-hydroxy-1-methylethyl)pyridin-2-yl]ethyl}-2-phenylpyridine-3-carboxamide]	103 nM	> 10000 nM
CCOc1ccccc1C(=O)N(CC)CCc1ccc(C(C)(C)O)cn1 [Example 57, 2-ethoxy-N-ethyl-N-{2-[5-(1-hydroxy-1-methylethyl)pyridin-2-yl]ethyl}benzamide]	547 nM	> 10000 nM
CCN(CCc1ccc(C(C)(C)O)cn1)C(=O)c1cccnc1OCC(F)F [Example 64, 2-(2,2-difluoroethoxy)-N-ethyl-N-{2-[5-(1-hydroxy-1-methylethyl)pyridin-2-yl]ethyl}pyridine-3-carboxamide]	337 nM	> 10000 nM
CCN(CCc1cccc(C(C)(C)O)n1)C(=O)c1ncccc1-c1ccccc1 [Example 26, N-ethyl-N-(2-(6-(2-hydroxypropan-2-yl)pyridin-2-yl)ethyl)-3-phenylpicolinamide]	452 nM	> 10000 nM
CCN(CCc1cccc(C(C)(C)O)n1)C(=O)c1cccnc1OCC(F)F [Example 9, 2-(2,2-difluoroethoxy)-N-ethyl-N-{2-[6-(1-hydroxy-1-methylethyl)pyridin-2-yl]ethyl}pyridine-3-carboxamide]	95 nM	> 10000 nM
CCN(CCc1ccc(C(C)(C)O)cn1)C(=O)c1cccnc1-c1ccccc1 [Example 58, N-ethyl-N-{2-[5-(1-hydroxy-1-methylethyl)pyridin-2-yl]ethyl}-2-phenylpyridine-3-carboxamide]	334 nM	> 10000 nM
CCN(CCc1cccc(C(C)(C)O)n1)C(=O)c1ccccc1C1CCC1 [Example 25, 2-cyclobutyl-N-ethyl-N-(2-(6-(2-hydroxypropan-2-yl)pyridin-2-yl)ethyl)benzamide]	34 nM	–
CCN(CCc1ccnc(C(C)(C)O)c1)C(=O)c1ccccc1-n1nccn1 [Example 37, N-Ethyl-N-{2-[2-(1-hydroxy-1-methylethyl)pyridin-4-yl]ethyl}-2-(2H-1,2,3-triazol-2-yl)benzamide]	124 nM	> 10000 nM
CCN(CCc1cccc(C(C)(C)O)n1)C(=O)c1ccccc1OC(F)F [Example 7, 2-(difluoromethoxy)-N-ethyl-N-{2-[6-(1-hydroxy-1-methylethyl)pyridin-2-yl]ethyl}benzamide]	196 nM	> 10000 nM
CCN(CCc1cccc(C(C)(C)O)n1)C(=O)c1ccccc1-n1ncnn1 [Example 29, N-ethyl-N-(2-(6-(2-hydroxypropan-2-yl)pyridin-2-yl)ethyl)-2-(2H-tetrazol-2-yl)benzamide]	146 nM	> 10000 nM
CCN(CCc1cccc(C(C)(C)O)n1)C(=O)c1ccccc1CC(F)(F)F [Example 18, N-ethyl-N-(2-(6-(2-hydroxypropan-2-yl)pyridin-2-yl)ethyl)-2-(2,2,2-trifluoroethyl)benzamide]	–	> 10000 nM
CCN(CCc1cccc(C(C)(C)O)n1)C(=O)c1ccccc1-n1nccn1 [Example 4, N-Ethyl-N-{2-[6-(1-hydroxy-1-methylethyl)pyridin-2-yl]ethyl}-2-(2H-1,2,3-triazol-2-yl)benzamide]	15 nM	–
CCN(CCc1cccc(C(C)(C)O)n1)C(=O)c1ccc(OC)nc1C1CC1 [Example 19, 2-cyclopropyl-N-ethyl-N-(2-(6-(2-hydroxypropan-2-yl)pyridin-2-yl)ethyl)-6-methoxynicotinamide]	16 nM	–
